Reference: patent US9469650B2, “Melampomagnolide B derivatives” (BOARD OF TRUSTEES OF THE UNIVERSITY OF ARKANSAS, priority 2013, dated 2016)

Experiments:
MDA-MB-435 = assay: panel of 60 human tumor cell lines, growth inhibition (Melanoma); settings: Homo sapiens; for GI50: MDA-MB-435; for CC50: MDA-MB-435, read-out: LC50; for IC (TGI): MDA-MB-435, read-out: TGI
786-0 = assay: panel of 60 human tumor cell lines, growth inhibition (Renal Cancer); settings: Homo sapiens; for GI50: 786-0; for CC50: 786-0, read-out: LC50; for IC (TGI): 786-0, read-out: TGI
SN12C = assay: as above; settings: Homo sapiens; for CC50: read-out: LC50; for IC (TGI): read-out: TGI
OVCAR-5 = assay: panel of 60 human tumor cell lines, growth inhibition (Ovarian Cancer); settings: Homo sapiens; for GI50: OVCAR-5; for CC50: OVCAR-5, read-out: LC50; for IC (TGI): OVCAR-5, read-out: TGI
NCI-H322M = assay: panel of 60 human tumor cell lines, growth inhibition (Non-Small Cell Lung Cancer); settings: Homo sapiens; for CC50: read-out: LC50; for IC (TGI): read-out: TGI
PC-3 = assay: panel of 60 human tumor cell lines, growth inhibition (Prostate Cancer); settings: Homo sapiens; for GI50: PC-3; for CC50: PC-3, read-out: LC50; for IC (TGI): PC-3, read-out: TGI
KM12 = assay: panel of 60 human tumor cell lines, growth inhibition (Colon Cancer); settings: for GI50 / CC50: Homo sapiens; for GI50 / Percent Growth / TGI: KM12; for CC50: KM12, read-out: LC50; for TGI: NCI five dose
NCI/ADR-RES = assay: panel of 60 human tumor cell lines, growth inhibition (Ovarian Cancer); settings: Homo sapiens; for CC50: read-out: LC50; for IC (TGI): read-out: TGI
SF-539 = assay: panel of 60 human tumor cell lines, growth inhibition (CNS Cancer); settings: Homo sapiens; for GI50: SF-539; for CC50: SF-539, read-out: LC50; for IC (TGI): SF-539, read-out: TGI
SK-MEL-2 = assay: panel of 60 human tumor cell lines, growth inhibition (Melanoma); settings: Homo sapiens; for GI50: SK-MEL-2; for CC50: SK-MEL-2, read-out: LC50; for IC (TGI): SK-MEL-2, read-out: TGI
HT29 = assay: panel of 60 human tumor cell lines, growth inhibition (Colon Cancer); settings: for Percent Growth: HT29; for GI50 / CC50 / IC (TGI): Homo sapiens; for GI50: HT-29; for CC50: HT-29, read-out: LC50; for IC (TGI): HT-29, read-out: TGI
U251 = assay: panel of 60 human tumor cell lines, growth inhibition (CNS Cancer); settings: Homo sapiens; for GI50: U-251; for CC50: U-251, read-out: LC50; for IC (TGI): U-251, read-out: TGI
HCT-116 = assay: panel of 60 human tumor cell lines, growth inhibition (Colon Cancer); settings: Homo sapiens; for GI50: HCT-116, HCT-116; for CC50: HCT-116, read-out: LC50; for IC (TGI): HCT-116, read-out: TGI
MDA-MB-231/ATCC = assay: panel of 60 human tumor cell lines, growth inhibition (Breast Cancer); settings: Homo sapiens; for GI50: MDA-MB-231; for CC50: MDA-MB-231, read-out: LC50; for IC (TGI): MDA-MB-231, read-out: TGI
A498 = assay: panel of 60 human tumor cell lines, growth inhibition (Renal Cancer); settings: Homo sapiens; for GI50: A498; for CC50: A498, read-out: LC50; for IC (TGI): A498, read-out: TGI
NCI-H460 = assay: panel of 60 human tumor cell lines, growth inhibition (Non-Small Cell Lung Cancer); settings: Homo sapiens; for GI50: NCI-H460; for CC50: NCI-H460, read-out: LC50; for IC (TGI): NCI-H460, read-out: TGI
DU-145 = assay: panel of 60 human tumor cell lines, growth inhibition (Prostate Cancer); settings: Homo sapiens; for GI50: DU-145; for CC50: DU-145, read-out: LC50; for IC (TGI): DU-145, read-out: TGI
HOP-62 = assay: panel of 60 human tumor cell lines, growth inhibition (Non-Small Cell Lung Cancer); settings: Homo sapiens; for GI50: HOP-62; for CC50: HOP-62, read-out: LC50

SMILES: C=C1C(=O)O[C@H]2[C@H]1CC/C(COC(=O)Nc1n[nH]c(SC)n1)=C\CC[C@@]1(C)O[C@@H]21 [JVM 64, ((1aR,7aS,10aS,10bS,E)-1a-methyl-8-methylene-9-oxo-1a,2,3,6,7,7a,8,9,10a,10b-decahydrooxireno[2′,3′:9,10]cyclodeca[1,2-b]furan-5-yl)methyl-(5-(methylthio)-1H-1,2,4-triazol-3-yl)carbamate]
- GI50 (MDA-MB-435): 2.24 µM
- CC50 (MDA-MB-435): 74.8 µM
- IC (TGI) (MDA-MB-435): 7.13 µM
- GI50 (786-0): 1.66 µM
- CC50 (786-0): 7.2 µM
- IC (TGI) (786-0): 3.45 µM
- GI50 (SN12C): 2.9 µM
- CC50 (SN12C): 44.6 µM
- IC (TGI) (SN12C): 10.7 µM
- GI50 (OVCAR-5): 2.18 µM
- CC50 (OVCAR-5): 24 µM
- IC (TGI) (OVCAR-5): 5.92 µM
- GI50 (NCI-H322M): 14.2 µM
- CC50 (NCI-H322M): 60.3 µM
- IC (TGI) (NCI-H322M): 29.2 µM
- GI50 (PC-3): 8.51 µM
- CC50 (PC-3): 77 µM
- IC (TGI) (PC-3): 26.8 µM
- GI50 (KM12): 4.01 µM
- CC50 (KM12): 41.5 µM
- Percent Growth (KM12; Log10 Concentration −4.0): −91%
- Percent Growth (KM12; Log10 Concentration −5.0): 17%
- Percent Growth (KM12; Log10 Concentration −6.0): 101%
- Percent Growth (KM12; Log10 Concentration −7.0): 108%
- Percent Growth (KM12; Log10 Concentration −8.0): 104%
- TGI (KM12): 1.43E−5
- GI50 (NCI/ADR-RES): 24.7 µM
- CC50 (NCI/ADR-RES): > 100 µM
- IC (TGI) (NCI/ADR-RES): > 100 µM
- GI50 (SF-539): 1.76 µM
- CC50 (SF-539): 9.46 µM
- IC (TGI) (SF-539): 4.08 µM
- GI50 (SK-MEL-2): 3.56 µM
- CC50 (SK-MEL-2): 62.2 µM
- IC (TGI) (SK-MEL-2): 13.1 µM
- Percent Growth (HT29; Log10 Concentration −4.0): −79%
- Percent Growth (HT29; Log10 Concentration −5.0): −11%
- Percent Growth (HT29; Log10 Concentration −6.0): 92%
- Percent Growth (HT29; Log10 Concentration −7.0): 101%
- Percent Growth (HT29; Log10 Concentration −8.0): 102%
- GI50 (HT29): 2.55 µM
- CC50 (HT29): 37.4 µM
- IC (TGI) (HT29): 7.77 µM
- GI50 (U251): 3.62 µM
- CC50 (U251): 51 µM
- IC (TGI) (U251): 15.8 µM
- GI50 (HCT-116; 5-dose assay): 1.13 µM
- GI50 (HCT-116; NCI five dose): 1.13 µM
- CC50 (HCT-116): 5.86 µM
- IC (TGI) (HCT-116): 2.6 µM
- GI50 (MDA-MB-231/ATCC): 2.93 µM
- CC50 (MDA-MB-231/ATCC): 37.7 µM
- IC (TGI) (MDA-MB-231/ATCC): 9.22 µM
- GI50 (A498): 2.56 µM
- CC50 (A498): 27.8 µM
- IC (TGI) (A498): 7.67 µM
- GI50 (NCI-H460): 4.03 µM
- CC50 (NCI-H460): > 100 µM
- IC (TGI) (NCI-H460): 18.9 µM
- GI50 (DU-145): 3.49 µM
- CC50 (DU-145): 38.4 µM
- IC (TGI) (DU-145): 13.1 µM
- GI50 (HOP-62): 6.45 µM
- CC50 (HOP-62): 64.9 µM
- IC (TGI) (HOP-62; HOP-62, read-out: TGI): 22.3 µM

SMILES: C=C1C(=O)O[C@H]2[C@H]1CC/C(COC(=S)n1ccnc1)=C\CC[C@@]1(C)O[C@@H]21 [JVM 66]
- GI50 (MDA-MB-435): 16.7 µM
- CC50 (MDA-MB-435): > 100 µM
- IC (TGI) (MDA-MB-435): 43.8 µM
- GI50 (786-0): 16.8 µM
- CC50 (786-0): 85.7 µM
- IC (TGI) (786-0): 37.9 µM
- GI50 (SN12C): 13.7 µM
- CC50 (SN12C): 85.3 µM
- IC (TGI) (SN12C): 18.8 µM
- GI50 (OVCAR-5): 13.5 µM
- CC50 (OVCAR-5): 78.1 µM
- IC (TGI) (OVCAR-5): 1760 µM
- GI50 (NCI-H322M): 69.5 µM
- CC50 (NCI-H322M): > 100 µM
- IC (TGI) (NCI-H322M): 106 µM
- GI50 (PC-3): 12 µM
- CC50 (PC-3): > 100 µM
- IC (TGI) (PC-3): 66.6 µM
- GI50 (KM12): > 100 µM
- CC50 (KM12): > 100 µM
- Percent Growth (KM12; Log10 Concentration −4.0): 60%
- Percent Growth (KM12; Log10 Concentration −5.0): 99%
- Percent Growth (KM12; Log10 Concentration −6.0): 99%
- Percent Growth (KM12; Log10 Concentration −7.0): 102%
- Percent Growth (KM12; Log10 Concentration −8.0): 100%
- TGI (KM12): >1.00E−4
- GI50 (NCI/ADR-RES): 30.1 µM
- CC50 (NCI/ADR-RES): > 100 µM
- IC (TGI) (NCI/ADR-RES): > 100 µM
- GI50 (SF-539): 16.7 µM
- CC50 (SF-539): 69.1 µM
- IC (TGI) (SF-539): 34 µM
- GI50 (SK-MEL-2): 16.4 µM
- CC50 (SK-MEL-2): 93 µM
- IC (TGI) (SK-MEL-2): 39.6 µM
- Percent Growth (HT29; Log10 Concentration −4.0): −70%
- Percent Growth (HT29; Log10 Concentration −5.0): 60%
- Percent Growth (HT29; Log10 Concentration −6.0): 105%
- Percent Growth (HT29; Log10 Concentration −7.0): 100%
- Percent Growth (HT29; Log10 Concentration −8.0): 99%
- GI50 (HT29): 12 µM
- CC50 (HT29): 69.9 µM
- IC (TGI) (HT29): 29 µM
- GI50 (U251): 32.5 µM
- CC50 (U251): > 100 µM
- IC (TGI) (U251): > 100 µM
- GI50 (HCT-116; NCI five dose): 2.47 µM
- CC50 (HCT-116): 33 µM
- IC (TGI) (HCT-116): 7.03 µM
- GI50 (MDA-MB-231/ATCC): 15.8 µM
- CC50 (MDA-MB-231/ATCC): 75.7 µM
- IC (TGI) (MDA-MB-231/ATCC): 34.6 µM
- GI50 (A498): 14.5 µM
- CC50 (A498): > 100 µM
- IC (TGI) (A498): 65.5 µM
- GI50 (NCI-H460): 15.7 µM
- CC50 (NCI-H460): > 100 µM
- IC (TGI) (NCI-H460): 71.4 µM
- GI50 (DU-145): 12.2 µM
- CC50 (DU-145): 59.1 µM
- IC (TGI) (DU-145): 26.9 µM
- GI50 (HOP-62): 36.5 µM
- CC50 (HOP-62): > 100 µM
